Measured values published in PMC7829778, “Optimization of 1,4-Naphthoquinone Hit Compound: A Computational, Phenotypic, and In Vivo Screening against Trypanosoma cruzi” (Molecules, 2021).
Like-named read-outs stand apart in the source and are kept apart here.

Key:
[1] = test system: T. cruzi trypomastigotes Y strain; assay: Trypanocidal activity against trypomastigotes, Y strain (CellTiter Glo); assay type: cell-based; conditions: Trypanosoma cruzi, 24 h
Experimental: (§1) T. cruzi Dm28c-Luc clone, genetically modified to express firefly luciferase, and Y strain were used in the drug screening assay. Vero cells were infected with T. cruzi, Dm28c-Luc or Y strain, in a 10:1 parasites/host cell ratio and maintained at 37 °C in humidified atmosphere of 5% CO2. Trypomastigotes were harvested from the infected culture supernatant on the 4th day post-infection (dpi) followed by quantification of the number of parasites/mL in Neubauer chamber.
(§2) Screening of the compounds was performed against trypomastigotes and intracellular amastigote forms. Trypomastigotes (1 × 10^6 parasites/well), Dm28c-Luc clone and Y strain, were incubated for 24 h at 37 °C with the 1,4 naphthoquinone derivatives and Bz (0.41–100 μM) and their viability determined by the activity of the luciferase enzyme, after addition of luciferin substrate (300 μg/mL), or CellTiter Glo. The luminescent signal was detected on the FlexStation 3 reader.

[2] = test system: intracellular amastigotes of T. cruzi (Dm28c-Luc clone); assay: Luminescent screening against intracellular amastigotes in infected Vero cells; assay type: cell-based, Trypanosoma cruzi; conditions: infected Vero cells treated for 72 h, mean ± SD of three experiments
Experimental: as §1
The effect of the compounds against intracellular amastigotes was screened in 72 h T. cruzi-infected Vero cells. Briefly, Vero cells seeded (1.5 × 10^4 cells/well) on 96-well white plate infected with trypomastigotes (Dm28c-Luc) at a 10:1 multiplicity of parasites/cell. After 24 h of infection, the cultures were washed with PBS and then, treated for 72 h at 37 °C with naphthoquinone derivatives and Bz (0.41–100 µM). After treatment, luciferin (300 µg/mL) was added to the culture and the viability of the parasites was assessed by reading the luminescent signal using the FlexStation 3 reader. Controls were also performed in no-toxic concentrations of DMSO (≤1%).

[3] = Cytotoxicity in vitro assay (CellTiter Glo, ATP level); assay type: cell-based; conditions: African green monkey, Vero cells
Experimental: The cultures were maintained at 37 °C in humidified atmosphere of 5% CO2.
To evaluate the toxic effects of the 1,4-naphthoquinone derivatives on mammalian cells, Vero cells were seeded at a density of 1.5 × 10^4 cells/well in 96-well white culture plates. Twenty-four hours later, the cell cultures were incubated for 72 h at 37 °C with 1,4-naphthoquinone derivatives (series 1(a–i) and 2(a–j)) and Bz (500–1.9 µM) diluted in RPMI medium supplemented with 10% FBS. After incubation, the cell viability, measured by ATP level, was assessed by adding 20 µL/well of the CellTiter Glo (Promega Corporation, Madison, WI, EUA) solution. The luminescent signal was read on the FlexStation 3 reader (Molecular Devices, Sunnyvale, CA, USA). […] All treatments and controls were performed at low concentration (≤1%) of dimethyl sulfoxide (DMSO). At least three independent assays were performed in duplicate.

[4] = test system: T. cruzi trypomastigotes Dm28c-Luc; assay: Trypanocidal activity against trypomastigotes, Dm28c-Luc clone (luciferase); assay type: cell-based, Trypanosoma cruzi; conditions: Trypanosoma cruzi, 24 h, mean ± SD of three experiments; for IC50: read-out: Trypanocidal Effect Trypomastigotes Dm28c-Luc IC50; for IC90: read-out: Trypanocidal Effect Trypomastigotes Dm28c-Luc IC90
Experimental: as §1, §2

[5] = trypomastigotes, mean ± SD of three experiments, read-out: Trypanocidal Effect Trypomastigotes Y Strain IC50
[6] = trypomastigotes, mean ± SD of three experiments, read-out: Trypanocidal Effect Trypomastigotes Y Strain IC90
[7] = Table 1, mean ± SD, read-out: Vero Cells Toxicity CC50
[8] = read-out: Trypanocidal Effect Trypomastigotes Y Strain IC50, trypomastigotes, 24 h, mean ± SD of three experiments
[9] = read-out: Trypanocidal Effect Trypomastigotes Y Strain IC90, trypomastigotes, 24 h, mean ± SD of three experiments

Structure (SMILES) | IC50 [1, 5] | IC90 [1, 6] | IC50 ([2]; Trypanosoma cruzi, Vero, 72 h) | IC90 ([2]; Trypanosoma cruzi) | IC50 [2] | CC50 at 72 h [3, 7] | CC50 at 72 h ([3]; Table 2, read-out: CC50 Vero) | IC50 [4] | IC90 [4] | melting point | IC50 [1, 8] | IC90 [1, 9]
O=C1C(O)=C(C(Sc2ccc(Cl)cc2)c2ccc(Cl)cc2)C(=O)c2ccccc21 (centres unmarked) [Compound 1a, 2-((4-chlorophenyl)((4-chlorophenyl)thio)methyl)-3-hydroxynaphthalene-1,4-dione] | 3.1 ± 0.6 µM | 5.8 ± 0.9 µM | ≤ 6.9 µM | 12.1 ± 1.3 µM | 6.2 ± 0.9 µM | 43.6 ± 2.3 µM | 43.6 ± 2.3 µM | 8.9 ± 0.6 µM | 25.1 ± 1.6 µM | 135 to 136 °C | – | –
O=C1C(O)=C(C(Sc2ccc(Cl)cc2)c2cccc(Cl)c2)C(=O)c2ccccc21 (centres unmarked) [Compound 1b, 2-((3-chlorophenyl)((4-chlorophenyl)thio)methyl)-3-hydroxynaphthalene-1,4-dione] | 3.6 ± 1.6 µM | 8.1 ± 1.3 µM | ≤ 6.9 µM | 12.7 ± 1.8 µM | 6.9 ± 1.5 µM | 42.1 ± 1.9 µM | 42.1 ± 1.9 µM | 9.8 ± 0.5 µM | 30.8 ± 2.9 µM | – | – | –
O=C1C(O)=C(C(Sc2ccc(Cl)cc2)c2ccccc2Cl)C(=O)c2ccccc21 (centres unmarked) [Compound 1c, 2-((2-chlorophenyl)((4-chlorophenyl)thio)methyl)-3-hydroxynaphthalene-1,4-dione] | 4.3 ± 3.2 µM | 7.3 ± 2.2 µM | 9.3 ± 0.8 µM | 23.1 ± 3.3 µM | – | 44.1 ± 2.3 µM | 44.1 ± 2.3 µM | 8.6 ± 1.4 µM | 29.6 ± 5.4 µM | 183 to 184 °C | – | –
O=C1C(O)=C(C(Sc2ccc(Cl)cc2)c2ccccc2)C(=O)c2c(O)cccc21 (centres unmarked) [Compound 1f, 3-(((4-chlorophenyl)thio)(phenyl)methyl)-2,5-dihydroxynaphthalene-1,4-dione] | – | – | 10.1 ± 1.4 µM | 29.1 ± 2.1 µM | – | 41.1 ± 2.1 µM | 41.1 ± 2.1 µM | 9.8 ± 0.7 µM | 28.1 ± 1.7 µM | – | – | –
COc1ccc(C(Sc2ccc(Cl)cc2)C2=C(O)C(=O)c3ccccc3C2=O)c(OC)c1 (centres unmarked) [Compound 1h, 2-(((4-chlorophenyl)thio)(2,4-dimethoxyphenyl)methyl)-3-hydroxynaphthalene-1,4-dione] | – | – | 12.1 ± 3.9 µM | 19.4 ± 3.6 µM | – | 24.4 ± 2.6 µM | 24 to 34 µM | 15.4 ± 4.6 µM | – | – | 22.9 ± 7.1 µM | 31.9 ± 6.1 µM
COc1ccc(C(Sc2ccc(Cl)cc2)C2=C(O)C(=O)c3ccccc3C2=O)c(OC)c1OC (centres unmarked) [Compound 1i, 2-(((4-chlorophenyl)thio)(2,3,4-trimethoxyphenyl)methyl)-3-hydroxynaphthalene-1,4-dione] | – | – | 15.9 ± 3.1 µM | 27.2 ± 3.4 µM | – | 34.2 ± 3.4 µM | 24 to 34 µM | 21.5 ± 2.9 µM | – | – | 30.1 ± 2.3 µM | 38.9 ± 4.3 µM
COc1ccc(C(Sc2ccccc2)C2=C(O)C(=O)c3ccccc3C2=O)cc1 (centres unmarked) [Compound 2a, 2-Hydroxy-3-((4-methoxyphenyl)(phenylthio)methyl)naphthalene-1,4-dione] | 31.2 ± 4.3 µM | 38.9 ± 5.3 µM | ≤ 6.9 µM | 25.3 ± 1.9 µM | 6.7 ± 1.6 µM | 45.1 ± 1.9 µM | 45.1 ± 1.9 µM | 27.4 ± 2.9 µM | 32.1 ± 1.6 µM | – | – | –
COc1ccc(C(Sc2cccc(C)c2)C2=C(O)C(=O)c3ccccc3C2=O)cc1 (centres unmarked) [Compound 2c, 2-Hydroxy-3-((4-methoxyphenyl)(m-tolylthio)methyl)naphthalene-1,4-dione] | 26.2 ± 4.8 µM | 32.8 ± 5.1 µM | ~12 µM | 30.9 ± 4.7 µM | 12.6 ± 2.4 µM | 48.9 ± 4.7 µM | 48.9 ± 4.7 µM | 52.3 ± 6.4 µM | 84.6 ± 11.4 µM | – | – | –
COc1ccc(C(Sc2ccc(C)cc2)C2=C(O)C(=O)c3ccccc3C2=O)cc1 (centres unmarked) [Compound 2d, 2-Hydroxy-3-((4-methoxyphenyl)(p-tolylthio)methyl) naphthalene-1,4-dione] | 31.1 ± 1.8 µM | 49.7 ± 7.1 µM | 11.9 ± 1.7 µM | 28.8 ± 4.6 µM | – | 142 ± 17.6 µM | 142 ± 17.6 µM | 24.3 ± 3.4 µM | 82.2 ± 7.7 µM | – | – | –
COc1ccc(C(Sc2ccc([N+](=O)[O-])cc2)C2=C(O)C(=O)c3ccccc3C2=O)cc1 (centres unmarked) [Compound 2f, 2-Hydroxy-3-((4-methoxyphenyl)((4-nitrophenyl)thio)methyl)naphthalene-1,4-dione] | 12.5 ± 1.6 µM | 19.9 ± 3.6 µM | ≤ 6.9 µM | 76.6 ± 4.9 µM | 5.7 ± 1.4 µM | 40.6 ± 2.9 µM | 40.6 ± 2.9 µM | 6.5 ± 3.1 µM | 11.5 ± 3.1 µM | – | – | –
CCCSC(C1=C(O)C(=O)c2ccccc2C1=O)c1ccc(OC)cc1 (centres unmarked) [Compound 2g, 2-Hydroxy-3-((4-methoxyphenyl)(propylthio)methyl)naphthalene-1,4-dione] | 12.7 ± 3.9 µM | 23.7 ± 4.1 µM | 10.3 ± 2.4 µM | 37.7 ± 4.1 µM | – | 47.7 ± 5.2 µM | 47.7 ± 5.2 µM | 13.7 ± 4.1 µM | 28.7 ± 5.1 µM | – | – | –
COc1ccc(SC(C2=C(O)C(=O)c3ccccc3C2=O)c2ccc(OC)cc2)cc1 (centres unmarked) [Compound 2i, 2-Hydroxy-3-((4-methoxyphenyl)((4-methoxyphenyl)thio)methyl)naphthalene-1,4-dione] | 10.6 ± 0.4 µM | 31.6 ± 5.4 µM | 15.8 ± 3.2 µM | 34.8 ± 5.3 µM | – | 44.8 ± 3.3 µM | 44.8 ± 3.3 µM | 24.1 ± 2.7 µM | 44.9 ± 6.7 µM | – | – | –
COc1ccc(C(Sc2ccc(SC)cc2)C2=C(O)C(=O)c3ccccc3C2=O)cc1 (centres unmarked) [Compound 2j, 2-hydroxy-3-((4-methoxyphenyl)((4-(methylthio)phenyl)thio)methyl)naphthalene-1,4-dione] | 89.6 ± 5.4 µM | > 100 µM | 60.2 ± 9.8 µM | > 100 µM | – | 93.5 ± 6.6 µM | 93.5 ± 6.6 µM | 52.7 ± 12.6 µM | > 100 µM | – | – | –
